From patent US9163020B2, “Azaindole compounds, synthesis thereof, and methods of using the same” (Global Alliance for TB Drug Development, priority 2013, dated 2015)
Values after ≈ are worked out from the molar mass of the structure shown. Where two headings read alike, the source gives them in different places.

Tests used:
in vivo [1] = details: male, Wistar, rat, po, 100 mg/kg
[2] = system: panel of human targets and cardiac channels
[3] = system: hypoxia induced non-replicating persistent (NRP) Mtb cells; test: Activity against hypoxia induced non-replicating persistent (NRP) Mtb (HBC, Wayne model); type: cell-based, Mycobacterium tuberculosis; details: for Mtb H37Rv HBC: Table 5
[4] = pH 7.4
Method: Octanol-water partition coefficient (Log D) based on the shake-flask principle has been measured as follows. The aqueous solution used was 10 mM sodium phosphate buffer pH 7.4. 20 μL of 10 mM compound dissolved in DMSO was taken in glass vial plate. DMSO was removed using GeneVac. 435 μL of octanol was added using Tomtec, stirred for 5 min to dissolve. Further mixing was done by inversion for 5 h at 25° C., subsequently centrifuged for 30 min at 3000 RPM. LC/UV/APPI/MS quantitation of both aqueous and octanol layers was carried out. Log D value was determined according to the following equation.

physchem = type: physicochemical; details: 25 °C, pH 7.4, aqueous buffer, thermodynamic from solid
Method: Solubility of the compounds in 0.1M phosphate buffer, pH 7.4 was determined as described, Glyburide was used as QC standard in the assay. Briefly, compounds were diluted in ACN/water (40:60) to desired concentration, samples were dried using Genevac for 4 hrs and subsequently 800 μl of buffer was added. Compound containing plates were stirred for 24 hrs at 25° C. on Eppendorf Thermomix R at 750 rpm. Finally, compound concentration was estimated using UV and MS analysis.

[5] = type: in vitro ADME
Method: 1 μM compound was incubated with 1 mg/mL of microsomes (Pooled HLM/MLM with 20 mg/ml protein cone.) at 37° C. in 166 μL of buffer (100 mM phosphate buffer, pH-7.4) containing 2 mM NADPH solution. […] The quench plate was centrifuged at 4000 rpm for 15 min. 30 μL of supernatant was diluted to 300 μL with 50% acetonitrile in water and substrate depletion was analyzed using LC-MS/MS.

in vivo [6] = details: po, 30 mg/kg
Method: PK of azaindoles compounds was performed in mice (healthy and infected) and rats. Mice were pretreated with 100 mg/kg ABT two hours prior to the compound administration. PK data from healthy mice was used to design the dosing regimen for the efficacy study while, information from infected mice was used for the PK-PD analysis.
All oral administration was performed as suspensions in 0.5% HPMC, and 0.1% Tween 80. […] All blood samples were collected via sapheneous vein into Microvette CB300® (Starstedt, Germany) tubes coated with Lithium-Heparin, and plasma was prepared from the collected blood by centrifugation.
One mg/mL stock solution of each compound was prepared in Dimethylsulfoxide (DMSO) and diluted two-fold with acetonitrile. A sixteen point calibration curve was utilized for each analyte, and the standard curves ranged from 0.001 to 40 μg/mL. Plasma/BAL samples were precipitated by adding chilled acetonitrile (1:10 v/v) containing carbamazepine as internal standard (250 ng/mL). Samples were vortexed, and centrifuged at 4000 rpm for 30 min at 10° C. The resulting supernatant was mixed with mobile phase (50% acetonitrile in water with 0.1% formic acid). […] of sample was injected on to a liquid chromatographic system (Waters-ACQUTY UPLC) coupled to triple quadrupole mass spectrometer (Waters-ACQUTY-TQD; MS/MS). Samples were acquired in positive ion mode and detected by multiple reaction monitoring (MRM). Concentrations of the analyte were determined from a standard curve obtained by plotting known concentrations of the analyte against peak area ratios (analyte/internal standard peak response).
PK analysis of the plasma concentration-time relationships were performed with WinNonlin Phoenix Software (version 6.2; Pharsight, USA). […] The maximum concentration of drug in plasma (Cmax), time to Cmax (Tmax), elimination half-life (t1/2), and AUC from time zero to infinity (AUC0-∞) were estimated. […] Minimum of three sample points in the terminal slope were used to estimate to calculate half-life.

hERG = hERG (Homo sapiens, UniProt Q12809)
Method: Compounds were tested on voltage-gated ion channels using the medium-throughput electrophysiology IonWorks™ device. […] For carrying out the experiment, a boat in the “Cells” position of the IonWorks™ instrument was loaded with the cell suspension, and a 96-well PBS destination plate was placed in the “Plate 1” position. A 384-well PatchPlate™ was placed in the IonWorks™ plenum and held in position using the plenum clamp. From this point the experiment progress is automated and ultimately reports a non-cumulative concentration-effect curve for test compound.

[7] = Method: Viability of cryopreserved hepatocytes was determined using trypan blue and the cell conc. was adjusted to 10^6 cells per mL with buffer (KHB buffer). 1 μM compound (in Acetonitrile; 0.01% DMSO) was incubated with 500 μL of hepatocyte cells (1 million cells per mL) in a NUNC plate. […] Supernatants were analyzed using LC-MS/MS for substrate depletion.
in vitro [8] = type: in vitro ADME; details: plasma
Method: Protein binding is measured using the equilibrium dialysis technique. Compound is added to 10% plasma giving a concentration of 20 μM and dialysed with isotonic buffer for 18 hours at 37° C. The plasma and buffer solutions are analysed using generic LCUVMS and the first apparent binding constant for the compound derived. The binding constant is then used to determine the % free in 100% plasma.

in vitro [9] = type: in vitro ADME; details: pH 7.4; mouse microsomes; read-out: Mo micrsomal Clint
Method: 1 μM compound was incubated with 1 mg/mL of microsomes (Pooled HLM/MLM with 20 mg/ml protein cone.) at 37° C. in 166 μL of buffer (100 mM phosphate buffer, pH-7.4) containing 2 mM NADPH solution. 20 μL of incubation mix was quenched with 4 volumes chilled acetonitrile at different time points i.e. 0, 2, 5, 10, 20 and 30 min in a fresh 96 well plate. The quench plate was centrifuged at 4000 rpm for 15 min. 30 μL of supernatant was diluted to 300 μL with 50% acetonitrile in water and substrate depletion was analyzed using LC-MS/MS.

[10] = system: A549 human lung carcinoma cells; type: cell-based
Method: The in vitro cytotoxicity of compounds were measured against A549 human lung carcinoma cells as describedin Eakin et. al (2012). Briefly, A549 cells (ATCC) were grown in RPMI medium (GIBCO-BRL) containing 10% heat-inactivated fetal bovine serum (GIBCO-BRL) and 1 mM L-glutamine (GIBCO-BRL) at a density of 1,000 cells/well. After incubation of the cells with compound in a CO2 atmosphere at 37° C. for 72 hours, cell viability was determined following addition of […] of resazurin solution (Sigma), by measuring fluorescence (excitation at 535 nm, emission at 590 nm) using a fluorimeter.

[11] = system: Mycobacterium tuberculosis (Mtb) H37Rv; test: Mtb minimal bactericidal concentration (MBC), plating from MIC plates; type: cell-based
Method: Aliquots from sample wells (MIC and higher) from the MIC plates were diluted 1:10 and plated on 7H10 agar plates. Plates were incubated at 37° C. for 3-4 weeks, CFU was enumerated.

[12] = system: CYP1A2, CYP2C9, CYP2C19, CYP2D6, CYP3A4; details: human
[13] = system: Mycobacterium tuberculosis (Mtb) H37Rv ATCC 27294; test: microbe, parasite or virus in culture; type: cell-based; details: Mycobacterium tuberculosis
in vivo [14] = details: BALB/c, mouse, po, 50 mg/kg
in vivo [15] = details: BALB/c, mouse, po
[16] = Table 5, read-out: Mtb H37Rv MBC
[17] = Table 5, read-out: Mtb H37Rv MIC

hERG, sequence (Q12809 whole entry): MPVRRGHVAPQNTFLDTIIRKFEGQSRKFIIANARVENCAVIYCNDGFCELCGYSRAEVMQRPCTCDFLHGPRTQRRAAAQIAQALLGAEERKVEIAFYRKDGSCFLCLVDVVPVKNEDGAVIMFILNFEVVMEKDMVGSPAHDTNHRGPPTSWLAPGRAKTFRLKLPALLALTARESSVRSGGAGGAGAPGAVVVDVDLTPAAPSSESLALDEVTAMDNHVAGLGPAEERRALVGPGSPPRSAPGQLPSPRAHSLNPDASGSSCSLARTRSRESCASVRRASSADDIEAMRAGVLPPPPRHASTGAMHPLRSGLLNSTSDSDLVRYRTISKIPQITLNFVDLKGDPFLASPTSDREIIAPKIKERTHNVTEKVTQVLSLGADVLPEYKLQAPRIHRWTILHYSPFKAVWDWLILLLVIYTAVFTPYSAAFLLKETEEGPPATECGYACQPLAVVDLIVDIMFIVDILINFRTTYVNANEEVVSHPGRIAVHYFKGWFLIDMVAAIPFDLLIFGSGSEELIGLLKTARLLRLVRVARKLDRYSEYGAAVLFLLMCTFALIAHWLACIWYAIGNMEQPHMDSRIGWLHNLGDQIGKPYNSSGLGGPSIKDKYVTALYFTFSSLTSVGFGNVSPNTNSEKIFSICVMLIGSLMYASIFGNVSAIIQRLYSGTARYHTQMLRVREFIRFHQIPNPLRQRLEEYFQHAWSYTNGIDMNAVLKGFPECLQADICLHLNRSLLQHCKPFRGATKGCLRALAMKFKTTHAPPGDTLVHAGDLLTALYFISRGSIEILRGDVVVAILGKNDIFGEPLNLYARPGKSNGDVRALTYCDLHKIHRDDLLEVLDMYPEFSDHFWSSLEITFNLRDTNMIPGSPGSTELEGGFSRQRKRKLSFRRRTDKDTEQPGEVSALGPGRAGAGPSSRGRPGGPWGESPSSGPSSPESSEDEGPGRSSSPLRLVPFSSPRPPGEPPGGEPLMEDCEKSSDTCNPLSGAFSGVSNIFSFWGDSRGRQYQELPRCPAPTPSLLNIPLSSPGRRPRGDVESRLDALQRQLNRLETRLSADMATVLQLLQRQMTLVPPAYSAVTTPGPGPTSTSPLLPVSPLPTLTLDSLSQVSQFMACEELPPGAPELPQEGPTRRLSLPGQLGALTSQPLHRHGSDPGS

COc1ncnc(Cn2cc(C(=O)NCCF)c3ncc(C)cc32)c1C [Compound 8, N-(2-fluoroethyl)-1-((6-methoxy-5-methylpyrimidin-4-yl)methyl)-6-methyl-1H-pyrrolo[3,2-b]pyridine-3-carboxamide]
AUC(0-inf) (in vivo [1]): 98.4 ± 31.9 µM·h | Cmax (in vivo [1]): 11.9 ± 3 µM | Tmax (in vivo [1]): 1.5 ± 0.6 h | half-life (in vivo [1]): 7.2 ± 1.3 h | Secondary pharmacology hits IC50 [2]: No significant hits | in vitro safety profiling [2]: no major safety liabilities | Mtb HBC ([3]; hypoxic conditions, Wayne model, Table 4): 100 µM | logD [4]: 2.6 | solubility (physchem): 4 µM (≈ 1.43 µg/mL) | Human CLpred microsomes (% LBF) ([5]; pH 7.4): 10.1 % LBF | AUC(0-inf) (in vivo [6]; BALB/c, mouse): 64.2 µM·h | Cmax (in vivo [6]; BALB/c, mouse): 13.4 µM | Tmax (in vivo [6]; BALB/c, mouse): 2 h | half-life (in vivo [6]; BALB/c, mouse): 4.15 h | AUC(0-inf) (in vivo [6]; Wistar, rat, in vivo): 29.3 µM·h | Cmax (in vivo [6]; Wistar, rat, in vivo): 3.69 µM | Tmax (in vivo [6]; Wistar, rat, in vivo): 4.5 h | half-life (in vivo [6]; Wistar, rat, in vivo): 3.58 h | hERG (hERG): >33 µM | Human CLpred hepatocytes (% LBF) ([7]; 1 μM): 4.3 % LBF | Rat CLpred hepatocytes (% LBF) ([7]; 1 μM): 14.9 % LBF | fraction unbound at 18 h, 20 μM (in vitro [8]; human): 0.05 to 0.22 | Human PPB (% free) (in vitro [8]): 5 % free | microsomal CLint (in vitro [9]): 108 µL/min/mg | MMIC (A549) ([10]; human, 72 h): >100 µM | MBC ([11]; Table 4, read-out: Mtb MBC): < 0.39 µM | CYP inhibition [12]: >50 µM | MIC ([13]; Table 1, read-out: Mtb MIC): < 0.53 µM | MIC ([13]; Table 4, read-out: Mtb MIC): < 0.39 µM

NNC(=O)c1ccncc1 [Isoniazid]
reduction in the bacterial CFU of NRP Mtb [3]: no reduction

COc1ncnc(Cn2cc(C(=O)NCC3CC3)c3ncccc32)c1C [Compound 4, N-(cyclopropylmethyl)-1-((6-methoxy-5-methylpyrimidin-4-yl)methyl)-1H-pyrrolo[3,2-b]pyridine-3-carboxamide]
AUC(0-inf) (in vivo [14]): 200 ± 101 µM·h | Cmax (in vivo [14]): 38.9 ± 15.2 µM | Tmax (in vivo [14]): 4.5 ± 2.78 h | half-life (in vivo [14]): 2.23 ± 0.35 h | predicted clearance ([5]; human, rat): 4-18 % of liver blood flow (% LBF) | AUC(0-inf) (in vivo [6]; Wistar, rat, in vivo): 22.9 µM·h | Cmax (in vivo [6]; Wistar, rat, in vivo): 2.35 µM | Tmax (in vivo [6]; Wistar, rat, in vivo): 3 h | half-life (in vivo [6]; Wistar, rat, in vivo): 3.64 h | hERG (hERG): >33 µM | Human CLpred hepatocytes (% LBF) [7]: 4.3 % LBF | Rat CLpred hepatocytes (% LBF) [7]: 13 % LBF | AUC (in vivo [15]): 200 to 700 µM·h | AUC(0-inf) (in vivo [15]; 30 mg/kg): 227 ± 28.9 µM·h | Cmax (in vivo [15]; 30 mg/kg): 17.4 ± 1.76 µM | Tmax (in vivo [15]; 30 mg/kg): 5.67 ± 2.31 h | half-life (in vivo [15]; 30 mg/kg): 3.85 ± 0.54 h | microsomal CLint (in vitro [9]): 180 µL/min/mg

Cc1cnc2c(C(=O)NCCO)cn(Cc3ncnc(N(C)C)c3C)c2c1 [Compound 34, 1-((6-(dimethylamino)-5-methylpyrimidin-4-yl)methyl)-N-(2-hydroxyethyl)-6-methyl-1H-pyrrolo[3,2-b]pyridine-3-carboxamide]
AUC(0-inf) (in vivo [1]): 166 ± 43.9 µM·h | Cmax (in vivo [1]): 31.5 ± 3 µM | Tmax (in vivo [1]): 2 h | half-life (in vivo [1]): 4.6 h | MIC ([13]; Table 1, read-out: Mtb MIC): < 0.39 µM

COc1ncnc(Cn2cc(C(=O)NCC(F)F)c3ncc(C)cc32)c1C [Compound 30, N-(2,2-difluoroethyl)-1-((6-methoxy-5-methylpyrimidin-4-yl)methyl)-6-methyl-1H-pyrrolo[3,2-b]pyridine-3-carboxamide]
AUC(0-inf) (in vivo [1]): 23.3 ± 11.7 µM·h | Cmax (in vivo [1]): 3.4 ± 2 µM | Tmax (in vivo [1]): 3.3 ± 2.3 h | half-life (in vivo [1]): 3.3 ± 1.1 h | MIC ([13]; Table 1, read-out: Mtb MIC): < 0.391 µM

COc1cccc(F)c1Cn1cc(C(=O)NCC2CC2)c2ncccc21 [Compound 32, N-(cyclopropylmethyl)-1-(2-fluoro-6-methoxybenzyl)-1H-pyrrolo[3,2-b]pyridine-3-carboxamide]
Mtb H37Rv HBC [3]: >200 µM | MMIC (A549) ([10]; Table 5): >100 µM | MBC [11, 16]: 1.56 to 6.25 µM (≈ 0.551 to 2.21 µg/mL) | MIC ([13]; Table 1, read-out: Mtb MIC): 1.56 µM (≈ 0.551 µg/mL) | MIC [13, 17]: 1.56 to 3.12 µM (≈ 0.551 to 1.1 µg/mL)

Cc1ccc(Cn2cc(C(=O)NCCF)c3ncccc32)c(C)c1 [Compound 31, 1-(2,4-dimethylbenzyl)-N-(2-fluoroethyl)-1H-pyrrolo[3,2-b]pyridine-3-carboxamide]
Mtb H37Rv HBC [3]: 12.5 to 25 µM | MMIC (A549) ([10]; human, 72 h): >82 µM | MBC [11, 16]: 3.12 to 6.25 µM (≈ 1.02 to 2.03 µg/mL) | MIC ([13]; Table 1, read-out: Mtb MIC): 1.56 µM (≈ 0.508 µg/mL) | MIC [13, 17]: 1.56 to 3.12 µM (≈ 0.508 to 1.02 µg/mL)

COc1ncc(C(F)(F)F)cc1Cn1cc(C(=O)NCCF)c2ncccc21 [Compound 13, N-(2-fluoroethyl)-1-((2-methoxy-5-(trifluoromethyl)pyridin-3-yl)methyl)-1H-pyrrolo[3,2-b]pyridine-3-carboxamide]
MIC ([13]; Table 1, read-out: Mtb MIC): < 0.53 µM

COc1cnc2c(C(=O)NCCO)cn(Cc3ncnc(OC)c3C)c2c1 [Compound 38, N-(2-hydroxyethyl)-6-methoxy-1-((6-methoxy-5-methylpyrimidin-4-yl)methyl)-1H-pyrrolo[3,2-b]pyridine-3-carboxamide]
MIC ([13]; Table 1, read-out: Mtb MIC): 0.78 µM (≈ 0.29 µg/mL)
